Assays:
[1] = target: Delta-type opioid receptor (Homo sapiens, UniProt P41143); experiment: Displacement of [3H]DADLE from human DOR expressed in HEK cells measured after 90 mins by microbeta scintillation counting method; assay type: cell-based, HEK293
Mu-type opioid receptor = Mu-type opioid receptor (Homo sapiens, UniProt P35372); experiment: Displacement of [3H]DAMGO from human MOR expressed in HEK cells after 90 mins by microbeta scintillation counting method; assay type: cell-based, HEK293
Chain of Mu-type opioid receptor (P35372 whole entry): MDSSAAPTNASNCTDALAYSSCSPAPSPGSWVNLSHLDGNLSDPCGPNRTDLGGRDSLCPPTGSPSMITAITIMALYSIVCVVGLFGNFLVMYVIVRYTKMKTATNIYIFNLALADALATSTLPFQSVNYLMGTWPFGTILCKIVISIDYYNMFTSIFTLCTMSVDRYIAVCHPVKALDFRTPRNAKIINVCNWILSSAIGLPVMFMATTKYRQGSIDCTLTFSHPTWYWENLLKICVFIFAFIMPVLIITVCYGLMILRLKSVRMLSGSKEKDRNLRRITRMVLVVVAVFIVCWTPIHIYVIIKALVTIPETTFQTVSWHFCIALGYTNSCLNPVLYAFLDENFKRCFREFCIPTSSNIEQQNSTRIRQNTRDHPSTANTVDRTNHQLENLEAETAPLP

[2] = target: Kappa-type opioid receptor (Homo sapiens, UniProt P41145); experiment: Displacement of [3H]U69593 from KOR (unknown origin) expressed in HEKT cells measured after 90 mins by microbeta scintillation counting method; assay type: cell-based
Chain of Kappa-type opioid receptor (P41145 whole entry): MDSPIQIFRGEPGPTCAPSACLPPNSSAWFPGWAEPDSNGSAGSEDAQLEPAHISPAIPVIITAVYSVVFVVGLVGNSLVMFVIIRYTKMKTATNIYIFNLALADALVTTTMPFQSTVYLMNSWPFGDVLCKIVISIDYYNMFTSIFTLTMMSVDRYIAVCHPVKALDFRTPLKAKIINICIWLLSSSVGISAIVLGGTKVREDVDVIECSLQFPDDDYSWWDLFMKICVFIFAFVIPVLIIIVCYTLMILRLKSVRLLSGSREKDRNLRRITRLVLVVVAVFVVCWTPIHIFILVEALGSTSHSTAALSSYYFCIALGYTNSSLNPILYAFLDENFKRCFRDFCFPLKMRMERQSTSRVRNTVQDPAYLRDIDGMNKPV

[3] = target: Sigma non-opioid intracellular receptor 1 (Cavia porcellus, UniProt Q60492); experiment: Displacement of [3H]pentazocine from guinea pig sigma1 receptor measured after 90 mins by microbeta scintillation counting method
Chain of Sigma non-opioid intracellular receptor 1 (Q60492 whole entry): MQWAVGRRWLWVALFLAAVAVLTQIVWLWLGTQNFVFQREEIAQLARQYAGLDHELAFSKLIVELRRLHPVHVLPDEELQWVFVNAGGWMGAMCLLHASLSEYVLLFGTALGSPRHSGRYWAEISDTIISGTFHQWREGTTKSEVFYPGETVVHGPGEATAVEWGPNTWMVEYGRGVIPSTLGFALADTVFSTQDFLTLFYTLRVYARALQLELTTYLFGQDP

[4] = Displacement of [3H]DTG from sigma2 receptor in rat PC12 cells measured after 90 mins by microbeta scintillation counting method; assay type: cell-based; settings: pc-12
PC-12 [5] = experiment: Selectivity ratio of Ki for sigma2 receptor in rat PC12 cells to Ki for guinea pig sigma1 receptor; assay type: cell-based
PC-12 [6] = experiment: Selectivity ratio of Ki for guinea pig sigma1 receptor to Ki for sigma2 receptor in rat PC12 cells; assay type: cell-based
[7] = target: T1, 5-hydroxytryptamine receptor 1A (Homo sapiens, UniProt P08908); experiment: Displacement of [3H]Way100635 from human 5-HT1A receptor expressed in CHO cells measured after 90 mins by microbeta scintillation counting method; assay type: cell-based
T1 sequence (P08908 whole entry): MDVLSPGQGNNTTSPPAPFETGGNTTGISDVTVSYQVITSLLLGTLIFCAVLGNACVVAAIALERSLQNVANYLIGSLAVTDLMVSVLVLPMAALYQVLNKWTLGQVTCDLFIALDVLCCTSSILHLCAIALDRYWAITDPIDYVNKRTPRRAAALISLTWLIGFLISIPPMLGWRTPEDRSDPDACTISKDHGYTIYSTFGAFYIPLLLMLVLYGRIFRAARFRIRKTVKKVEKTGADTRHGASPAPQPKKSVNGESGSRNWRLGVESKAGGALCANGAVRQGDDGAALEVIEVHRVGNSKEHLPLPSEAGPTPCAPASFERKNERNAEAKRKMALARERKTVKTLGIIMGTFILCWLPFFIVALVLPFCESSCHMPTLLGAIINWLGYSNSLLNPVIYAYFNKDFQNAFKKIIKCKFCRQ

Chain of Delta-type opioid receptor (P41143 whole entry): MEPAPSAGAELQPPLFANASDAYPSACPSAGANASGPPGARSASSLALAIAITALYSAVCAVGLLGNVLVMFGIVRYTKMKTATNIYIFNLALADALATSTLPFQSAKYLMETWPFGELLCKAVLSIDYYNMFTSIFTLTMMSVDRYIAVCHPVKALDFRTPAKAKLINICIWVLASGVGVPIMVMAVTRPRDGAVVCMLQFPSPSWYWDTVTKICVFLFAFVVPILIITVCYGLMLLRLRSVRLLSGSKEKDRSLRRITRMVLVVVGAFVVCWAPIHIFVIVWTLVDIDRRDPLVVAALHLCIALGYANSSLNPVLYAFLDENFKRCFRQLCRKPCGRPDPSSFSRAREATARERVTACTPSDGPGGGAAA

| SMILES | Ki [1] [µM] | Ki (Mu-type opioid receptor) [µM] | Ki [2] [µM] | Ki [3] [µM] | Ki [4] [µM] | Ratio Ki (PC-12 [5]) | Ratio Ki (PC-12 [6]) | Ki [7] [µM] |
| --- | --- | --- | --- | --- | --- | --- | --- | --- |
| CCCN1CC[C@H]2C[C@@H](O)[C@H](CC)[C@H]3CCC[C@@H]1[C@H]23 | > 10 | > 10 | > 10 | 0.055 | 0.183 | 3.3 |  |  |
| O=C1C[C@@H]2CCN(Cc3nccs3)[C@@H]3CCC[C@@H]([C@@H]23)[C@H]1Cc1ccccc1 | > 10 | > 10 | 1.4 | 0.003 | 0.27 | 90 |  |  |
| CC[C@H]1C(=O)C[C@@H]2CCN(CC3CCCCC3)[C@@H]3CCC[C@H]1[C@@H]23 | > 10 | 1.9 | 0.278 | 0.004 | 0.003 | 0.8 |  |  |
| CC[C@H]1C(=O)C[C@@H]2CCN(Cc3cccs3)[C@@H]3CCC[C@H]1[C@@H]23 | > 10 | 0.892 | 1.47 | 0.006 | 0.187 | 31.2 |  |  |
| O=C(CCCN1CCC(O)(c2ccc(Cl)cc2)CC1)c1ccc(F)cc1 [HALOPERIDOL] |  |  |  |  | 0.014 |  |  |  |
| CCCN1CC[C@H]2CC(=O)[C@H](Cc3ccccc3)[C@H]3CCC[C@@H]1[C@H]23 | > 10 | > 10 | 3.62 | 0.001 | 0.005 | 5 |  |  |
| CC[C@H]1c2nc3ccccc3cc2[C@@H]2CCN(C)[C@@H]3CCC[C@H]1[C@H]32 | > 10 | > 10 | 3.49 | 0.189 | 0.086 | 0.5 | 2.2 |  |
| CCCN1CC[C@H]2CC(=O)[C@H](CC)[C@H]3CCC[C@@H]1[C@H]23 | > 10 | > 10 | > 10 | 0.011 to 0.012 | 0.23 to 0.401 | 20.9 |  | 4.5 |
| CCCN1CC[C@H]2c3cc4cc(Cl)ccc4nc3[C@H](CC)[C@H]3CCC[C@@H]1[C@@H]32 | > 10 | > 10 | 0.372 | 0.209 | 0.017 | 0.08 | 12.3 |  |
| CCCN1CC[C@H]2CC3=Nc4ccccc4[C@]3(CC)[C@H]3CCC[C@@H]1[C@H]23 | > 10 | > 10 | > 10 | 0.007 | 0.076 | 10.9 |  |  |
| COc1ccc(C[C@H]2C(=O)C[C@@H]3CCN(CC4CCCCC4)[C@@H]4CCC[C@H]2[C@@H]34)cc1 | > 10 | > 10 | 1.6 | 0.01 | 0.003 | 0.3 | 3 |  |
| O=C1C[C@@H]2CCN(Cc3cccs3)[C@@H]3CCC[C@@H]([C@@H]23)[C@H]1Cc1ccccc1 | > 10 | > 10 | 0.638 | 0.003 | 0.044 | 14.7 |  |  |
| CCCN1CC[C@H]2CC(=O)C[C@H]3CCC[C@@H]1[C@@H]32 | > 10 | > 10 | > 10 | 0.126 | 0.127 | 1 |  |  |
| CC[C@H]1C(=O)C[C@@H]2CCN(CCC(C)C)[C@@H]3CCC[C@H]1[C@@H]23 | > 10 | > 10 | 1.28 | 0.004 | 0.006 | 1.5 |  |  |
| CC(C)CCN1CC[C@H]2CC(=O)[C@H](Cc3ccccc3)[C@H]3CCC[C@@H]1[C@H]23 | > 10 | > 10 | 0.711 | 0.002 | 0.003 | 1.5 |  |  |
| CCCN1CC[C@H]2c3cc4ccccc4nc3[C@H](CC)[C@H]3CCC[C@@H]1[C@@H]32 | > 10 | > 10 | 0.493 | 0.07 | 0.027 | 0.4 | 2.6 |  |
| COc1ccc(C[C@H]2C(=O)C[C@@H]3CCN(C)[C@@H]4CCC[C@H]2[C@@H]34)cc1 | > 10 | > 10 | > 10 | 0.005 | 0.251 | 50.2 |  |  |

Further lines, with some results ahead:

| Ki [1] [µM] | Ki (Mu-type opioid receptor) [µM] | Ki [2] [µM] | Ki [3] [µM] | SMILES | Ki [4] [µM] | Ratio Ki (PC-12 [5]) | Ratio Ki (PC-12 [6]) | Ki [7] [µM] |
| --- | --- | --- | --- | --- | --- | --- | --- | --- |
| > 10 | > 10 | > 10 | > 10 | CC[C@H]1C(=O)C[C@@H]2CCN(S(=O)(=O)c3ccc(C)cc3)[C@@H]3CCC[C@H]1[C@@H]23 | > 10 |  |  |  |
| > 10 | > 10 | > 10 | 0.407 | CC[C@H]1C(=O)C[C@@H]2CCN(Cc3nccs3)[C@@H]3CCC[C@H]1[C@@H]23 | 0.76 | 1.9 |  |  |
| > 10 | > 10 | > 10 | 0.722 | CC[C@H]1C(=O)C[C@@H]2CCN(C(=O)NCc3ccc(Cl)cc3)[C@@H]3CCC[C@H]1[C@@H]23 | 1.91 | 2.6 |  |  |
| > 10 | > 10 | > 10 | 0.137 | CC[C@H]1C(=O)C[C@@H]2CCN(C)[C@@H]3CCC[C@H]1[C@@H]23 | > 5.93 | > 43.3 |  |  |
| > 10 | 0.632 | > 10 | 0.002 | CCCCCCCN1CC[C@H]2CC(=O)[C@H](CC)[C@H]3CCC[C@@H]1[C@H]23 | 0.008 | 4 |  |  |
| > 10 | > 10 | > 10 | 0.003 | COc1ccc(C[C@H]2C(=O)C[C@@H]3CCN(CCC(C)C)[C@@H]4CCC[C@H]2[C@@H]34)cc1 | 0.006 | 2 |  |  |
| > 10 | > 10 | > 10 | 0.002 | COCCN1CC[C@H]2CC(=O)[C@H](Cc3ccccc3)[C@H]3CCC[C@@H]1[C@H]23 | 0.035 | 17.5 |  |  |
| > 10 | > 10 | > 10 | 0.345 | CCCN1CC[C@@H]2CC(=O)C[C@H]3CCC[C@H]1[C@H]32 | 0.663 | 1.9 |  |  |
| > 10 | > 10 | 1.23 | 0.003 | O=C1C[C@@H]2CCN(CC3CCCCC3)[C@@H]3CCC[C@@H]([C@@H]23)[C@H]1Cc1ccccc1 | 0.002 | 0.7 |  |  |
| > 10 | > 10 | > 10 | 0.009 | CCCN1CC[C@H]2CC(=O)[C@H](Cc3ccc(OC)cc3)[C@H]3CCC[C@@H]1[C@H]23 | 0.029 | 3.2 |  |  |
| > 10 | > 10 | > 10 | 0.026 | CC[C@H]1C(=O)C[C@@H]2CCN(CCOC)[C@@H]3CCC[C@H]1[C@@H]23 | 0.423 | 16.3 |  |  |
| > 10 | > 10 | 1.69 | 0.171 | CCCN1CC[C@H]2c3cc4cccc(OC)c4nc3[C@H](CC)[C@H]3CCC[C@@H]1[C@@H]32 | 0.063 | 0.4 | 2.7 |  |

— ChEMBL document CHEMBL3868615, “Decahydrobenzoquinolin-5-one sigma receptor ligands: Divergent development of both sigma 1 and sigma 2 receptor selective examples” (Bioorg Med Chem Lett, 2016)
